The supplement of paper PMC10307832

What was measured:
Assay in all cases: relative viability (nuclei count vs DMSO), 5 days (fraction); higher = more cells survive
BX 795 + Crizotinib = compound: O=C(NCCCNc1nc(Nc2cccc(NC(=O)N3CCCC3)c2)ncc1I)c1cccs1 [BX 795] + C[C@@H](Oc1cc(-c2cnn(C3CCNCC3)c2)cnc1N)c1c(Cl)ccc(F)c1Cl [Crizotinib] (partner 1 µM)
How it was run: (§1)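 Medians of duplicate plates are given as relative viability. That measure is the nuclei count in treated wells divided by the count in vehicle wells. Counts were taken on 4× images of lung cancer cell lines in 1536-well plates, 5 days after pin-tool dosing the day after seeding with one drug alone or a fixed anchor-drug dose plus five library-drug doses (not always all listed) in √10 steps.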

BX 795 + AZD7762 = compound: O=C(NCCCNc1nc(Nc2cccc(NC(=O)N3CCCC3)c2)ncc1I)c1cccs1 [BX 795] + NC(=O)Nc1cc(-c2cccc(F)c2)sc1C(=O)N[C@H]1CCCNC1 [AZD7762] (partner 0.2 µM)
How it was run: as §1

BX 795 + Tozasertib = compound: O=C(NCCCNc1nc(Nc2cccc(NC(=O)N3CCCC3)c2)ncc1I)c1cccs1 [BX 795] + Cc1cc(Nc2cc(N3CCN(C)CC3)nc(Sc3ccc(NC(=O)C4CC4)cc3)n2)n[nH]1 [Tozasertib] (partner 0.1 µM)
How it was run: as §1

BX 795 + Linsitinib = compound: O=C(NCCCNc1nc(Nc2cccc(NC(=O)N3CCCC3)c2)ncc1I)c1cccs1 [BX 795] + C[C@]1(O)C[C@@H](c2nc(-c3ccc4ccc(-c5ccccc5)nc4c3)c3c(N)nccn32)C1 [Linsitinib] (partner 1 µM)
How it was run: as §1

BX 795 + Vorinostat = compound: O=C(NCCCNc1nc(Nc2cccc(NC(=O)N3CCCC3)c2)ncc1I)c1cccs1 [BX 795] + O=C(CCCCCCC(=O)Nc1ccccc1)NO [Vorinostat] (partner 1 µM)
How it was run: as §1

Cell Line	relative viability (BX 795 + Crizotinib; first compound 0.04 µM)	relative viability (BX 795 + Crizotinib; first compound 0.1265 µM)	relative viability (BX 795 + Crizotinib; first compound 0.4 µM)	relative viability (BX 795 + Crizotinib; first compound 1.265 µM)	relative viability (BX 795 + AZD7762; first compound 0.04 µM)	relative viability (BX 795 + AZD7762; first compound 0.1265 µM)	relative viability (BX 795 + AZD7762; first compound 0.4 µM)	relative viability (BX 795 + AZD7762; first compound 1.265 µM)	relative viability (BX 795 + Tozasertib; first compound 0.04 µM)	relative viability (BX 795 + Tozasertib; first compound 0.1265 µM)	relative viability (BX 795 + Tozasertib; first compound 0.4 µM)	relative viability (BX 795 + Tozasertib; first compound 1.265 µM)	relative viability (BX 795 + Linsitinib; first compound 0.04 µM)	relative viability (BX 795 + Linsitinib; first compound 0.1265 µM)	relative viability (BX 795 + Linsitinib; first compound 0.4 µM)	relative viability (BX 795 + Linsitinib; first compound 1.265 µM)	relative viability (BX 795 + Vorinostat; first compound 0.04 µM)	relative viability (BX 795 + Vorinostat; first compound 0.1265 µM)	relative viability (BX 795 + Vorinostat; first compound 0.4 µM)	relative viability (BX 795 + Vorinostat; first compound 1.265 µM)
201T	1.06	1.03	1.1	1.03	0.6	0.603	0.597	0.628	1.06	0.918	1.11	0.963	1.06	1.08	1.04	1.03	1.06	0.991	1.23	1.12
A549	0.725	0.71	0.777	0.128	–	–	–	–	–	–	–	–	0.579	0.646	0.574	0.552	–	–	–	–
A-427	0.906	0.924	0.771	0.446	0.774	0.843	0.694	0.647	0.227	0.148	0.179	0.136	1.17	1.13	1.15	0.982	0.915	0.812	0.872	0.754
ABC-1	1.2	1.23	1.03	0.3	0.83	0.924	0.745	0.838	0.193	0.151	0.145	0.148	0.849	0.914	0.765	0.549	0.961	–	1.24	0.922
BEN	0.984	1.02	0.787	0.821	0.659	0.653	0.587	0.647	0.606	0.447	0.523	0.44	0.996	0.944	0.842	0.864	0.591	0.559	0.582	0.526
CAL-12T	0.562	0.426	0.309	0.333	0.555	0.617	0.609	0.584	0.323	0.288	0.298	0.263	0.833	0.901	0.723	0.374	0.661	0.715	0.523	0.413
COR-L23	0.724	0.703	0.466	0.204	–	–	–	–	0.201	0.186	0.168	0.111	0.909	0.827	0.961	0.4	0.379	0.458	0.205	0.106
COR-L 105	0.789	0.588	0.56	0.279	–	–	–	–	0.391	0.362	0.405	0.267	1.08	0.768	0.849	0.447	0.835	0.702	0.622	0.429
ChaGo-K-1	1.11	1.14	1.05	0.961	0.797	0.864	0.858	0.815	0.175	0.226	0.205	0.212	–	–	–	–	0.809	0.771	0.725	0.668
EKVX	1.04	0.867	0.732	0.753	0.67	0.805	0.671	0.645	0.38	0.471	0.358	0.331	1.1	1.21	0.833	0.839	0.865	0.696	0.738	0.537
EMC-BAC-2	0.724	0.733	0.631	0.525	1.06	1.09	0.945	0.727	0.277	0.362	0.258	0.175	0.79	0.888	0.83	0.615	0.393	0.261	0.411	0.198
EPLC-272H	0.984	–	0.922	0.813	0.215	0.337	0.234	0.259	0.349	0.277	0.294	0.228	1.33	–	1.06	0.972	0.533	0.472	0.354	0.219
H3255	0.903	0.831	0.852	0.644	0.933	0.869	0.846	0.859	0.716	0.605	0.773	0.55	1.04	1.07	1.05	0.842	0.79	0.797	0.938	0.754
HARA	1.21	1.06	1	0.601	0.149	0.301	0.286	0.387	0.124	0.0907	0.0944	0.0873	0.896	0.966	0.916	0.795	0.523	0.595	0.447	0.482
IA-LM	0.78	0.936	1.32	0.546	–	–	–	–	–	–	–	–	0.615	0.452	0.769	0.626	0.79	1.06	0.992	0.892
